# Patent US3985758A, “1,4-Dihydropyridine derivatives” (Yamanouchi Pharmaceutical Co., Ltd., priority 1973, dated 1976)
# Structures can show the parent of a compound that is named as a salt. Where two headings read alike, the source gives them in different places.
# Experiments:
# [1] = Solubility in water at 25° C; format: physicochemical
# in vivo = conditions: mouse, in vivo, iv
# Protocol: LD50 was determined by using mice.
# 2. Acute toxicity in mice
# Male ICR weighing 25 to 32 g were used. The test compounds were injected into tail vein and LD 50 values were determined.
# [2] = tested on: vertebral and femoral blood flow; assay: Vertebral and femoral blood flow in anesthetized dogs; format: in vivo, mongrel dog; conditions: 0.01 mg/kg i.v. (0.01 or 0.03 mg/kg); for Blood pressure change (Δ mmHg): femoral artery; for Separation ratio (percent increase of vertebral blood flow / that of femoral blood flow): significance vs SKF 24260
# Protocol: Vertebral and femoral blood flow in anesthetized dogs.
# Mongrel dogs of both sexes weighing from 12 to 27 kg were anesthetized with sodium pentobarbitol (30 mg/kg i.v.). In all experiments, trachea was cannulated and the animals were artificially ventilated with room air. Blood pressure in cannulated femoral artery was measured by means of a pressure transducer (Nihon Kohden, MPU 0.5). Vertebral and femoral blood flow were measured by a noncannulating electromagnetic flowmeter (Nihon Kohden, MF-25) positioned around the vessels. Recordings were made on an ink-writing polygraph (Nihon Kohden, RM-150 or RM-85). The test compounds were injected at a dose of 0.01 mg/kg into femoral vein.
# vertebral artery = assay: Direct vasodilating effect on vertebral artery, constant volume perfusion; format: in vivo, mongrel dog; conditions: intra-arterial; for Vasodilation ED50, vertebral artery: ±SE, maximum response to papaverine 3000 μg i.a. = 100%
# Source text: (§1) Heparin (1000 μ/Kg, i.v.) was used as an anticoagulant. The methods for perfusion of each artery were as following: 1) For the vertebral artery, the arterial blood led from the left common carotid artery was collected by the tygon tubing and perfused by the Sigma-motor pump (Mippleport N.Y. T-8) into the right vertebral artery. 2) For the femoral artery, the arterial blood led from the proximal femoral artery was perfused by the Sigma-motor pump into the distal femoral artery. […] All drugs were given into a rubber tube connected close to the each arterial cannula by a microinjector (Jintan Terumo, NSN-100).
# femoral artery = assay: Direct vasodilating effect on femoral artery, constant volume perfusion; format: in vivo, mongrel dog; conditions: intra-arterial; ±SE; maximum response to papaverine 3000 μg i.a. = 100%
# Source text: For the analysis of the selective effect on vasculature by the drugs, direct effect on cerebral (vertebral artery) and peripheral (femoral artery) vascular bed were studied by the method of the constant volume perfusion.
# as §1
# [3] = Naturwissenschaften 58, (11)578(1971); cited from earlier work
# guinea-pig ileum = assay: Spasmolytic activity in isolated guinea-pig ileum (Magnus apparatus); conditions: Cavia porcellus, ±S.E.
# Protocol: Methods: Isolated guinea-pig ileum was suspended in Tyrodes solution by use of Magnus apparatus and the movements of the muscle were recorded in a kymograph by an isotonic lever.
# [4] = compounds of the present invention, 25° C
# [5] = compounds of the present invention, 25° C, at the given pH, read-out: Solubility
molecule,measurement,setting,value
"2,6-dimethyl-4-(2'-nitrophenyl)-1,4-dihydropyridine-3,5-dicarboxylic acid bis[β-(N-benzyl-N-methylaminethyl] ester hydrochloride [Example 9]",pH (of solubility determination),[1]; [4],3.16
same,solubility,"[1]; compounds of the present invention, 25° C, at the given pH",2.74%
"CC1=C(C(=O)OCCCN(C)Cc2ccccc2)C(c2cccc([N+](=O)[O-])c2)C(C(=O)OC(C)C)=C(C)N1 (stereo not shown) [2,6-dimethyl-4-(3'-nitrophenyl)-1,4-dihydropyridine-3,5-dicarboxylic acid 3-isopropylester-5-γ-(N-benzyl-N-methylamino)propyl ester]",LD50,in vivo,10 mg/kg
"CC1=C(C(=O)OCCN(C)Cc2ccccc2)C(c2cccc([N+](=O)[O-])c2)C(C(=O)OC(C)C)=C(C)N1 (stereo not drawn) [Example 1, 2,6-dimethyl-4-(3'-nitrophenyl)-1,4-dihydropyridine-3,5-dicarboxylic acid-3-isopropylester-5-β-(N-benzyl-N-methylamino)-ethyl ester hydrochloride]",pH (of solubility determination),[1]; [4],4.12
same,solubility,[1]; [5],3100 µg/mL
"CC1=C(C(=O)OCCN(C)Cc2ccccc2)C(c2ccccc2[N+](=O)[O-])C(C(=O)OC(C)C)=C(C)N1 (stereo not drawn) [Example 4, 2,6-dimethyl-4-(2'-nitrophenyl)-1,4-dihydropyridine-3,5-dicarboxylic acid 3-isopropylester-5-β-(N-benzyl-N-methylamino)ethyl ester]",pH (of solubility determination),[1]; [4],4.10
same,solubility,[1]; [5],3200 µg/mL
"CCOC(=O)C1=C(C)NC(C)=C(C(=O)OCCN(C)Cc2ccccc2)C1c1cccc([N+](=O)[O-])c1 (stereo not drawn) [Example 6, 2,6-dimethyl-4-(3'-nitrophenyl)-1,4-dihydropyridine-3,5-dicarboxylic acid 3-ethylester-5-β-(N-benzyl-N-methylamino)ethyl ester]",pH (of solubility determination),[1]; [4],4.20
same,solubility,[1]; [5],2900 µg/mL
"CCOC(=O)C1=C(C)NC(C)=C(C(=O)OCCN(C)Cc2ccc(OC)cc2)C1c1cccc([N+](=O)[O-])c1 (stereo not drawn) [Example 14, 2,6-dimethyl-4-(3'-nitrophenyl)-1,4-dihydropyridine-3,5-dicarboxylic acid 3-ethyl ester 5-β-(N-methyl-N-p-methoxybenzylamino)ethyl ester]",pH (of solubility determination),[1]; [4],4.17
same,solubility,[1]; [5],1000 µg/mL
"COc1ccc(CN(C)CCOC(=O)C2=C(C)NC(C)=C(C(=O)OCCN(C)Cc3ccc(OC)cc3)C2c2cccc([N+](=O)[O-])c2)cc1 [Example 16, dihydrochloride]",pH (of solubility determination),[1]; [4],3.20
same,solubility,[1]; [5],25300 µg/mL
"COC(=O)C1=C(C)NC(C)=C(C(=O)OCCN(C)Cc2ccccc2)C1c1ccccc1C(F)(F)F (stereo not drawn) [Example 24, 2,6-dimethyl-4-(o-trifluoromethyl-phenyl)-1,4-dihydropyridine-3,5-dicarboxylic acid 3-β-(N-benzyl-N-methylamino)ethyl ester 5-methyl ester hydrochloride]",LD50,in vivo,23.7 mg/kg
same,pH (of solubility determination),[1]; [4],3.91
same,solubility,[1]; [5],2300 µg/mL
same,Femoral blood flow (FBF %),[2],67 ± 10.5%
same,Vertebral blood flow (VBF Δ %),[2],119 ± 20.4 Δ %
same,Blood pressure change (Δ mmHg),[2],-28 ± 4.9 Δ mmHg
same,Separation ratio (percent increase of vertebral blood flow / that of femoral blood flow),[2],2.04 ± 0.53
"COC(=O)C1=C(C)NC(C)=C(C(=O)OCCN(C)Cc2ccccc2)C1c1ccccc1[N+](=O)[O-] (stereo not drawn) [Example 36, 2,6-dimethyl-4-(2'-nitrophenyl)-1,4-dihydropyridine-3.5-dicarboxilic acid 3-methyl ester 5-β-(N-benzyl-N-methylamino) ethyl ester hydrochloride]",LD50,in vivo,14 mg/kg
same,Femoral blood flow (FBF %),[2],83 ± 14.1%
same,Vertebral blood flow (VBF Δ %),[2],167 ± 31.7 Δ %
same,Blood pressure change (Δ mmHg),[2],-26 ± 5.0 Δ mmHg
same,Separation ratio (percent increase of vertebral blood flow / that of femoral blood flow),[2],2.21 ± 0.56
"COC(=O)C1=C(C)NC(C)=C(C(=O)OC)C1c1ccccc1[N+](=O)[O-] [Nifedipine, 4-(2'-nitrophenyl)-2,6-dimethyl-1,4-dihydropyridine-3,5-dicarboxylic acid dimethyl ester]","Vasodilation ED50, vertebral artery",vertebral artery,0.74 ± 0.15 µg
same,"Vasodilation ED50, femoral artery",femoral artery,0.37 ± 0.11 µg
same,Femoral blood flow (FBF %),[2],109 ± 34.1%
same,Vertebral blood flow (VBF Δ %),[2],135 ± 28.8 Δ %
same,Blood pressure change (Δ mmHg),[2],-39 ± 3.2 Δ mmHg
same,Coronary vasodilator activity and spasmolytic activity,[3],much excellent coronary vasodilator activity and spasmolytic activity
same,Heart rate (Δbeats/min.±SE),anesthetized dogs; 0.001 mg/Kg i.v.,10±3.5 Δbeats/min.
same,Mean blood pressure (ΔmmHg±SE),anesthetized dogs; 0.001 mg/Kg i.v.,-10±1.6 ΔmmHg
same,Vertebral blood flow (Δ%±SE),anesthetized dogs; 0.001 mg/Kg i.v.,47±13.5 Δ%
same,Heart rate (Δbeats/min.±SE),anesthetized dogs; 0.003 mg/Kg i.v.,18±3.2 Δbeats/min.
same,Mean blood pressure (ΔmmHg±SE),anesthetized dogs; 0.003 mg/Kg i.v.,-24±5.9 ΔmmHg
same,Vertebral blood flow (Δ%±SE),anesthetized dogs; 0.003 mg/Kg i.v.,104±25.8 Δ%
same,Heart rate (Δbeats/min.±SE),anesthetized dogs; 0.01 mg/Kg i.v.,17±4.0 Δbeats/min.
same,Mean blood pressure (ΔmmHg±SE),anesthetized dogs; 0.01 mg/Kg i.v.,-39±3.2 ΔmmHg
same,Vertebral blood flow (Δ%±SE),anesthetized dogs; 0.01 mg/Kg i.v.,135±28.8 Δ%
COc1ccc(Cc2nccc3cc(OC)c(OC)cc23)cc1OC [Papaverine],Selectivity ratio (ED50 in femoral artery/ED50 in vertebral artery),vertebral artery; anesthetized dogs,0.67
same,"Vasodilation ED50, vertebral artery",vertebral artery,72.8 ± 8.71 µg
same,"Vasodilation ED50, femoral artery",femoral artery,48.8 ± 3.73 µg
same,IC50,"guinea-pig ileum; read-out: Spasmolytic activity, 50% inhibition of contractile response, Acetylchloline 10^-7 g/ml",11 µg/mL
same,IC50,"guinea-pig ileum; read-out: Spasmolytic activity, 50% inhibition of contractile response, BaCl2 2×10^-4 g/ml",7.2 µg/mL
same,IC50,"guinea-pig ileum; read-out: Spasmolytic activity, 50% inhibition of contractile response, Histamine 10^-7 g/ml",7 µg/mL
same,Heart rate (Δbeats/min.±SE),anesthetized dogs; 0.1 mg/Kg i.v.,8±1.5 Δbeats/min.
same,Mean blood pressure (ΔmmHg±SE),anesthetized dogs; 0.1 mg/Kg i.v.,-9±1.1 ΔmmHg
same,Vertebral blood flow (Δ%±SE),anesthetized dogs; 0.1 mg/Kg i.v.,22±3.4 Δ%
same,Heart rate (Δbeats/min.±SE),anesthetized dogs; 0.3 mg/Kg i.v.,22±3.5 Δbeats/min.
same,Mean blood pressure (ΔmmHg±SE),anesthetized dogs; 0.3 mg/Kg i.v.,-21±2.8 ΔmmHg
same,Vertebral blood flow (Δ%±SE),anesthetized dogs; 0.3 mg/Kg i.v.,67±7.1 Δ%
same,Heart rate (Δbeats/min.±SE),anesthetized dogs; 1.0 mg/Kg i.v.,44±4.8 Δbeats/min.
same,Mean blood pressure (ΔmmHg±SE),anesthetized dogs; 1.0 mg/Kg i.v.,-32±3.5 ΔmmHg
same,Vertebral blood flow (Δ%±SE),anesthetized dogs; 1.0 mg/Kg i.v.,124±13.8 Δ%
"CCOC(=O)C1=C(C)NC(C)=C(C(=O)OCCN(C)Cc2ccccc2)C1c1cccc([N+](=O)[O-])c1 (stereo not drawn) [R5=C2H5O, A=CH2CH2, R3=drawing 10, R4=CH3, 2,6-Dimethyl-4-(3'-nitrophenyl)-1,4-dihydropyridine-3,5-dicarboxylic acid 3-β-(N-benzyl-N-methylamino)ethyl ester 5-ethyl ester]",LD50,in vivo,15 mg/kg
"CCOC(=O)C1=C(C)NC(C)=C(C(=O)OCCN(C)Cc2ccc(OC)cc2)C1c1cccc([N+](=O)[O-])c1 (stereo not shown) [R5=C2H5O, A=CH2CH2, R3=drawing 12, R4=CH3]",LD50,in vivo,10 mg/kg
"CCOC(=O)C1=C(C)NC(C)=C(C(=O)OCCN(C)Cc2ccc(Cl)cc2)C1c1cccc([N+](=O)[O-])c1 (stereo not shown) [R5=C2H5O, A=CH2CH2, R3=drawing 13, R4=CH3]",LD50,in vivo,12 mg/kg
"CC(=O)C1=C(C)NC(C)=C(C(=O)OCCN(C)Cc2ccccc2)C1c1cccc([N+](=O)[O-])c1 (stereo not drawn) [R5=CH3, A=CH2CH2, R3=drawing 14, R4=CH3, 3-Acetyl-2,6-dimethyl-4-(3'-nitrophenyl)-1,4-dihydropyridine-5-carboxylic acid 3-β-(N-benzyl-N-methylamino)ethyl ester]",LD50,in vivo,40 mg/kg
"CC(=O)C1=C(C)NC(C)=C(C(=O)OCCN(C)Cc2ccc(Cl)cc2)C1c1cccc([N+](=O)[O-])c1 (stereo not drawn) [R5=CH3, A=CH2CH2, R3=drawing 15, R4=CH3, 3-Acetyl-2,6-dimethyl-4-(3'-nitrophenyl)-1,4-dihydropyridine-5-carboxylic acid 3-β-(N-p-chlorobenzyl-N-methylamino)ethyl ester]",LD50,in vivo,45 mg/kg
"CCN(CCOC(=O)C1=C(C)NC(C)=C(C(=O)OC(C)C)C1c1cccc([N+](=O)[O-])c1)Cc1ccccc1 (stereo not drawn) [R5=drawing 11, A=CH2CH2, R3=drawing 10, R4=C2H5, 2,6-Dimethyl-4-(3'-nitrophenyl)-1,4-dihydropyridine-3,5-dicarboxylic acid 3-β-(N-benzyl-N-ethylamino)ethyl ester 5-isopropyl ester]",LD50,in vivo,12 mg/kg
"CC1=C(C(=O)OCCN(C)Cc2ccccc2)C(c2cccc([N+](=O)[O-])c2)C(C(=O)OC(C)C)=C(C)N1 (stereo not drawn) [R5=drawing 11, A=CH2CH2, R3=drawing 10, R4=CH3, 2,6-Dimethyl-4-(3'-nitrophenyl)-1,4-dihydropyridine-3,5-dicarboxylic acid 3-β-(N-benzyl-N-methylamino)ethyl ester 5-isopropyl ester]",LD50,in vivo,15 mg/kg
COC(=O)C1=C(C)NC(C)=C(C(=O)OC)C1c1ccccc1C#N [reference compound],LD50,in vivo,7.4 mg/kg
same,pH (of solubility determination),"[1]; known compounds, 25° C",5.80
same,solubility,"[1]; known compounds, 25° C, at the given pH, read-out: Solubility",10 µg/mL
same,solubility,"[1]; known compounds, pH 4.00, 25° C, read-out: Solubility at pH 4.00",1 µg/mL
same,Femoral blood flow (FBF %),[2],109 ± 28.0%
same,Vertebral blood flow (VBF Δ %),[2],97 ± 16.0 Δ %
same,Blood pressure change (Δ mmHg),[2],-38 ± 6.0 Δ mmHg
same,Separation ratio (percent increase of vertebral blood flow / that of femoral blood flow),[2],1.20 ± 0.27
